Reference: ChEMBL document CHEMBL4673219, “Novel 5,6-disubstituted pyrrolo[2,3-d]pyrimidine derivatives as broad spectrum antiproliferative agents: Synthesis, cell based assays, kinase profile and molecular docking study” (Bioorg Med Chem, 2018)
Where “and” joins values, the source holds several entries; their conditions need not be identical. Identical values can stand only once.

Legend:
SK-MEL-5 = experiment: Growth inhibition of human SK-MEL-5 cells assessed as growth percentage at 10 uM incubated for 48 hrs by sulforhodamine B assay relative to control; format: functional; settings: read-out: Activity
LOX IMVI = experiment: Growth inhibition of human LOX IMVI cells assessed as growth percentage at 10 uM incubated for 48 hrs by sulforhodamine B assay relative to control; format: functional; settings: read-out: Activity
SNB-75 = experiment: Growth inhibition of human SNB-75 cells assessed as growth percentage at 10 uM incubated for 48 hrs by sulforhodamine B assay relative to control; format: functional; settings: read-out: Activity
HCT-116 [1] = experiment: Growth inhibition of human HCT-116 cells assessed as growth percentage at 10 uM incubated for 48 hrs by sulforhodamine B assay relative to control; format: functional; settings: read-out: Activity
Hs-578T = experiment: Growth inhibition of human Hs-578T cells incubated for 48 hrs by sulforhodamine B assay; format: functional
TK-10 = experiment: Growth inhibition of human TK-10 cells incubated for 48 hrs by sulforhodamine B assay; format: functional; settings: for GI50 / TGI: TK-10
UACC-62 = experiment: Growth inhibition of human UACC-62 cells incubated for 48 hrs by sulforhodamine B assay; format: functional
MDA-MB-435 [2] = experiment: Growth inhibition of human MDA-MB-435 cells incubated for 48 hrs by sulforhodamine B assay; format: functional; settings: for TGI: MDA-MB-435; for CC50: MDA-MB-435, read-out: LC50 (the source's name)
SF-539 [3] = experiment: Growth inhibition of human SF-539 cells incubated for 48 hrs by sulforhodamine B assay; format: functional
HCT-15 [4] = experiment: Growth inhibition of human HCT-15 cells incubated for 48 hrs by sulforhodamine B assay; format: functional; settings: for TGI: HCT-15
HCC 2998 [5] = experiment: Growth inhibition of human HCC 2998 cells incubated for 48 hrs by sulforhodamine B assay; format: functional
SK-BR-3 = experiment: Antiproliferative activity against human SK-BR-3 cells assessed as cell growth inhibition measured after 72 hrs by MTT assay; format: functional
ACHN = experiment: Growth inhibition of human ACHN cells assessed as growth percentage at 1 uM incubated for 48 hrs by sulforhodamine B assay relative to control; format: functional; settings: read-out: Activity
SK-MEL-28 [6] = experiment: Growth inhibition of human SK-MEL-28 cells assessed as growth percentage at 100 uM incubated for 48 hrs by sulforhodamine B assay relative to control; format: functional; settings: read-out: Activity
SK-MEL-28 [7] = experiment: Growth inhibition of human SK-MEL-28 cells assessed as growth percentage at 0.1 uM incubated for 48 hrs by sulforhodamine B assay relative to control; format: functional; settings: read-out: Activity
MDA-MB-231 = experiment: Growth inhibition of human MDA-MB-231/ATCC cells assessed as growth percentage at 100 uM incubated for 48 hrs by sulforhodamine B assay relative to control; format: functional; settings: read-out: Activity
MCF7 = experiment: Growth inhibition of human MCF7 cells assessed as growth percentage at 100 uM incubated for 48 hrs by sulforhodamine B assay relative to control; format: functional; settings: read-out: Activity
NCI/ADR-RES = experiment: Growth inhibition of human NCI/ADR-RES cells assessed as growth percentage at 100 uM incubated for 48 hrs by sulforhodamine B assay relative to control; format: functional; settings: read-out: Activity
MDA-MB-435 [8] = experiment: Growth inhibition of human MDA-MB-435 cells assessed as growth percentage at 100 uM incubated for 48 hrs by sulforhodamine B assay relative to control; format: functional; settings: read-out: Activity
Malme-3M = experiment: Growth inhibition of human Malme-3M cells assessed as growth percentage at 100 uM incubated for 48 hrs by sulforhodamine B assay relative to control; format: functional; settings: read-out: Activity
SF-295 [9] = experiment: Growth inhibition of human SF-295 cells assessed as growth percentage at 100 uM incubated for 48 hrs by sulforhodamine B assay relative to control; format: functional; settings: read-out: Activity
KM12 = experiment: Growth inhibition of human KM12 cells assessed as growth percentage at 100 uM incubated for 48 hrs by sulforhodamine B assay relative to control; format: functional; settings: read-out: Activity
HCT-15 [10] = experiment: Growth inhibition of human HCT-15 cells assessed as growth percentage at 100 uM incubated for 48 hrs by sulforhodamine B assay relative to control; format: functional; settings: read-out: Activity
HCC 2998 [11] = experiment: Growth inhibition of human HCC 2998 cells assessed as growth percentage at 100 uM incubated for 48 hrs by sulforhodamine B assay relative to control; format: functional; settings: read-out: Activity
CCRF-CEM = experiment: Growth inhibition of human CCRF-CEM cells assessed as growth percentage at 100 uM incubated for 48 hrs by sulforhodamine B assay relative to control; format: functional; settings: read-out: Activity
BT-549 = experiment: Growth inhibition of human BT-549 cells assessed as growth percentage at 1 uM incubated for 48 hrs by sulforhodamine B assay relative to control; format: functional; settings: read-out: Activity
SK-OV-3 = experiment: Growth inhibition of human SK-OV-3 cells assessed as growth percentage at 1 uM incubated for 48 hrs by sulforhodamine B assay relative to control; format: functional; settings: read-out: Activity
OVCAR-5 = experiment: Growth inhibition of human OVCAR-5 cells assessed as growth percentage at 1 uM incubated for 48 hrs by sulforhodamine B assay relative to control; format: functional; settings: read-out: Activity
SF-539 [12] = experiment: Growth inhibition of human SF-539 cells assessed as growth percentage at 1 uM incubated for 48 hrs by sulforhodamine B assay relative to control; format: functional; settings: read-out: Activity
SF-295 [13] = experiment: Growth inhibition of human SF-295 cells assessed as growth percentage at 0.1 uM incubated for 48 hrs by sulforhodamine B assay relative to control; format: functional; settings: read-out: Activity
SF-539 [14] = experiment: Growth inhibition of human SF-539 cells assessed as growth percentage at 0.01 uM incubated for 48 hrs by sulforhodamine B assay relative to control; format: functional; settings: read-out: Activity
HCT-116 [15] = experiment: Growth inhibition of human HCT-116 cells assessed as growth percentage at 0.01 uM incubated for 48 hrs by sulforhodamine B assay relative to control; format: functional; settings: read-out: Activity
NCI-H522 = experiment: Growth inhibition of human NCI-H522 cells assessed as growth percentage at 0.01 uM incubated for 48 hrs by sulforhodamine B assay relative to control; format: functional; settings: read-out: Activity
[16] = AUC (0 to infinity) in Sprague-Dawley rat at 10 mg/kg, po measured up to 24 hrs by LC-MS/MS analysis; format: ADME, organism-based; parameters: route oral, dose 10 mg/kg, time <=24; settings: in vivo
[17] = biological target: Tyrosine-protein kinase Lyn (Homo sapiens) (UniProt P07948); experiment: Inhibition of human LYN at 10 uM using myelin basic protein as substrate incubated for 40 mins in presence of [gamma33P]ATP by scintillation counting method relative to control
[18] = biological target: Insulin-like growth factor 1 receptor (Homo sapiens) (UniProt P08069); experiment: Inhibition of human IGF1R at 10 uM using myelin basic protein as substrate incubated for 40 mins in presence of [gamma33P]ATP by scintillation counting method relative to control
HL-60(TB) = experiment: Growth inhibition of human HL-60(TB) cells incubated for 48 hrs by sulforhodamine B assay; format: functional

Sequence of Tyrosine-protein kinase Lyn (Homo sapiens) (P07948 2-512 limits assumed): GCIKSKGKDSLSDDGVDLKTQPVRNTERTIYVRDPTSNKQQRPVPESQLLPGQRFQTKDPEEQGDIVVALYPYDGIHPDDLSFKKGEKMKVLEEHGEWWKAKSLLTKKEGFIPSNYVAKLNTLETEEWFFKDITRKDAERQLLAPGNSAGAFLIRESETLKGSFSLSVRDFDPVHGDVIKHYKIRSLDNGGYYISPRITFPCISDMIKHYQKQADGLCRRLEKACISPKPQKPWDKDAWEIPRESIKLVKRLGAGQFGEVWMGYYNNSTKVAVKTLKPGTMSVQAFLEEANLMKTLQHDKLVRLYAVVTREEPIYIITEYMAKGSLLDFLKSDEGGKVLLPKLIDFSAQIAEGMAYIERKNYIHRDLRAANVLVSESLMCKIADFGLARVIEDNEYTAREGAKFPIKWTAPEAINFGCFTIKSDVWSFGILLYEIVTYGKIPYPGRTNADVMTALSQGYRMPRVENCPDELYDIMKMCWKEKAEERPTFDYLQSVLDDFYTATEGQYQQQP
Sequence of Insulin-like growth factor 1 receptor (Homo sapiens) (P08069 31-736 limits assumed): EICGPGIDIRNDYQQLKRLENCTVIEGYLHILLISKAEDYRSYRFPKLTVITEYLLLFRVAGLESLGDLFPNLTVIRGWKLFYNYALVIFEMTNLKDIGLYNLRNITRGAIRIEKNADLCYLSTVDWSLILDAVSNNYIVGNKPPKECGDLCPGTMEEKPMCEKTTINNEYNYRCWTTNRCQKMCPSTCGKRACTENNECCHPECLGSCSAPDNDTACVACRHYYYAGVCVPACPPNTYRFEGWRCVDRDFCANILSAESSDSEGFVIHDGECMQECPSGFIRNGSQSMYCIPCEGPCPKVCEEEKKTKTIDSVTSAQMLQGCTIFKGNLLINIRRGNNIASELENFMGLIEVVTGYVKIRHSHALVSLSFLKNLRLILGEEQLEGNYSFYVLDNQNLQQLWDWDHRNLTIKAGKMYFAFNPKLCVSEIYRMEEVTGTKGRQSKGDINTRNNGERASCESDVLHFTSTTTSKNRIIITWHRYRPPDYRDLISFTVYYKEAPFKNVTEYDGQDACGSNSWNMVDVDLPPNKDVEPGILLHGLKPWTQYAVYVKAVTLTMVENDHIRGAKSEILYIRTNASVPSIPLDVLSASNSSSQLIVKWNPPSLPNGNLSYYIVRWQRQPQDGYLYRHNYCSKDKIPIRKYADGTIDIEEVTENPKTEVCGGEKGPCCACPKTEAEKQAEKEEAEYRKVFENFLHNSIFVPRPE
Sequence of Insulin-like growth factor 1 receptor (Homo sapiens) (P08069 741-1367 limits assumed): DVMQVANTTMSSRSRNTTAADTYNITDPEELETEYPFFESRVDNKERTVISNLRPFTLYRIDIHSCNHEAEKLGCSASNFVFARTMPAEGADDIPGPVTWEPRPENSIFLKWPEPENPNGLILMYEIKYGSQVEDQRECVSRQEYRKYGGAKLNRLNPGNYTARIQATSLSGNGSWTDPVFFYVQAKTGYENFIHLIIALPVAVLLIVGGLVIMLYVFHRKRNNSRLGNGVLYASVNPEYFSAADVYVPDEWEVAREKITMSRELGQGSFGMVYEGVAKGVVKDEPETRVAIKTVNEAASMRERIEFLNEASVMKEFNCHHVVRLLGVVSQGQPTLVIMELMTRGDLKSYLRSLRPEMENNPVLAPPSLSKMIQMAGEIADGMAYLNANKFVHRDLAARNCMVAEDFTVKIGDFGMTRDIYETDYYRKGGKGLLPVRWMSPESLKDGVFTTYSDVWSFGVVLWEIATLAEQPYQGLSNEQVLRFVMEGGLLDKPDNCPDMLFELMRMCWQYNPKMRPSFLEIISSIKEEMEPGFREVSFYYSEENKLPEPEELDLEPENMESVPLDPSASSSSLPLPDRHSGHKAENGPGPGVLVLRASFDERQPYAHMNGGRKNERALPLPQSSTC

Structure (SMILES): Nc1nc2[nH]c(CN3CCN(c4cc(Cl)cc(Cl)c4)CC3)c(CN3CCN(c4cc(Cl)cc(Cl)c4)CC3)c2c(=O)[nH]1
- growth at 10 µM (SK-MEL-5): 91%
- growth at 10 µM (LOX IMVI): 26.3%
- growth at 10 µM (SNB-75): 63.7%
- growth at 10 µM (HCT-116 [1]): -10.2%
- GI50 (Hs-578T): 1780 nM
- TGI (Hs-578T): 4220 nM
- GI50 (TK-10): 1800 nM
- TGI (TK-10): 3260 nM
- GI50 (UACC-62; Homo sapiens, UACC-62, 48 h): 1800 nM
- TGI (UACC-62; Homo sapiens, UACC-62, 48 h): 3420 nM
- TGI (MDA-MB-435 [2]; Homo sapiens): 3040 nM
- GI50 (MDA-MB-435 [2]; Homo sapiens, MDA-MB-435, 48 h): 1620 nM
- CC50 (MDA-MB-435 [2]; Homo sapiens): 5720 nM
- GI50 (SF-539 [3]): 1720 nM
- TGI (SF-539 [3]): 3260 nM
- TGI (HCT-15 [4]; Homo sapiens): 4050 nM
- GI50 (HCT-15 [4]; Homo sapiens, HCT-15, 48 h): 1930 nM
- GI50 (HCC 2998 [5]; Homo sapiens, HCC 2998, 48 h): 1700 nM
- TGI (HCC 2998 [5]; Homo sapiens, HCC 2998, 48 h): 3160 nM
- GI50 (SK-BR-3): 3220 nM
- growth at 1 µM (ACHN): 98%
- growth at 100 µM (SK-MEL-28 [6]): -42%
- growth at 0.1 µM (SK-MEL-28 [7]): 98%
- growth at 100 µM (MDA-MB-231): -30%
- growth at 100 µM (MCF7): -48%
- growth at 100 µM (NCI/ADR-RES): 55%
- growth at 100 µM (MDA-MB-435 [8]): -80%
- growth at 100 µM (Malme-3M): -42%
- growth at 100 µM (SF-295 [9]): -33%
- growth at 100 µM (KM12): -84%
- growth at 100 µM (HCT-15 [10]): -49%
- growth at 100 µM (HCC 2998 [11]): -38%
- growth at 100 µM (CCRF-CEM): -30%
- growth at 1 µM (BT-549): 85%
- growth at 1 µM (SK-OV-3): 102%
- growth at 1 µM (OVCAR-5): 89%
- growth at 1 µM (SF-539 [12]): 93%
- growth at 0.1 µM (SF-295 [13]): 93%
- growth at 0.01 µM (SF-539 [14]): 89%
- growth at 0.01 µM (HCT-116 [15]): 100%
- growth at 0.01 µM (NCI-H522): 95%

Structure (SMILES): CCCCCCCC(=O)Nc1nc2[nH]c(CN3CCN(Cc4cccc(F)c4)CC3)c(CN3CCN(Cc4cccc(F)c4)CC3)c2c(=O)[nH]1
- growth at 10 µM (SK-MEL-5): 33.5%
- growth at 10 µM (LOX IMVI): -88.5%
- growth at 10 µM (SNB-75): -99.2%
- growth at 10 µM (HCT-116 [1]): -96.7%
- AUC(0-inf) [16]: 61.7 ng·h/mL
- inhibition [17]: 70.3%
- inhibition [18]: 70.3%
- GI50 (Hs-578T): 1720 nM
- TGI (Hs-578T): 4180 nM
- GI50 (TK-10): 1740 nM
- TGI (TK-10): 3260 nM
- CC50 (TK-10; TK-10, 48 h, read-out: LC50 (the source's name)): 6110 nM
- GI50 (UACC-62; 48 h): 1680 nM
- TGI (UACC-62; 48 h): 3150 nM
- CC50 (UACC-62; 48 h, read-out: LC50 (the source's name)): 590 nM and 5900 nM
- GI50 (UACC-62; Homo sapiens, UACC-62, 48 h): 1800 nM
- TGI (UACC-62; Homo sapiens, UACC-62, 48 h): 3420 nM
- GI50 (MDA-MB-435 [2]; 48 h): 320 nM
- TGI (MDA-MB-435 [2]; Homo sapiens): 1240 nM
- GI50 (MDA-MB-435 [2]; Homo sapiens, MDA-MB-435, 48 h): 317 nM
- CC50 (MDA-MB-435 [2]; Homo sapiens): 3770 nM
- GI50 (SF-539 [3]): 1560 nM
- GI50 (HCT-15 [4]; 48 h): 300 nM
- TGI (HCT-15 [4]; Homo sapiens): 1010 nM
- GI50 (HCT-15 [4]; Homo sapiens, HCT-15, 48 h): 295 nM
- CC50 (HCT-15 [4]; Homo sapiens, HCT-15, read-out: LC50 (the source's name)): 3750 nM
- GI50 (HCC 2998 [5]; 48 h): 250 nM
- TGI (HCC 2998 [5]; 48 h): 570 nM
- GI50 (HCC 2998 [5]; Homo sapiens, HCC 2998, 48 h): 248 nM
- TGI (HCC 2998 [5]; Homo sapiens, HCC 2998, 48 h): 573 nM
- CC50 (HCC 2998 [5]; Homo sapiens, HCC 2998, read-out: LC50 (the source's name)): 2620 nM
- GI50 (HL-60(TB)): 1740 nM
- TGI (HL-60(TB)): 3750 nM
- GI50 (SK-BR-3): 3910 nM
- growth at 100 µM (MDA-MB-231): -66%
- growth at 100 µM (MCF7): -63%
- growth at 100 µM (NCI/ADR-RES): -86%
- growth at 100 µM (MDA-MB-435 [8]): -83%
- growth at 100 µM (Malme-3M): -73%
- growth at 100 µM (SF-295 [9]): -81%
- growth at 100 µM (KM12): -47%
- growth at 100 µM (HCT-15 [10]): -85%
- growth at 100 µM (HCC 2998 [11]): -79%
- growth at 100 µM (CCRF-CEM): 8%
- growth at 1 µM (BT-549): 63%
- growth at 1 µM (SK-OV-3): 107%
- growth at 0.1 µM (SF-295 [13]): 94%
- growth at 0.01 µM (HCT-116 [15]): 95%
- growth at 0.01 µM (NCI-H522): 106%
